Results on 10 molecules are retold here after patent US20130252930A1 (BIOMARIN PHARMACEUTICAL INC., priority 2010, published 2013).

In the experiment the target is T1, CYP17 (human testicular microsome) (Homo sapiens, UniProt P05093).
T1 construct: using microsomal fraction from human testis (Celsis Cat #S00110) as the enzyme source; tissue Celsis S00110; host or cells: human testis microsomal fraction
T1 sequence (P05093 1-508): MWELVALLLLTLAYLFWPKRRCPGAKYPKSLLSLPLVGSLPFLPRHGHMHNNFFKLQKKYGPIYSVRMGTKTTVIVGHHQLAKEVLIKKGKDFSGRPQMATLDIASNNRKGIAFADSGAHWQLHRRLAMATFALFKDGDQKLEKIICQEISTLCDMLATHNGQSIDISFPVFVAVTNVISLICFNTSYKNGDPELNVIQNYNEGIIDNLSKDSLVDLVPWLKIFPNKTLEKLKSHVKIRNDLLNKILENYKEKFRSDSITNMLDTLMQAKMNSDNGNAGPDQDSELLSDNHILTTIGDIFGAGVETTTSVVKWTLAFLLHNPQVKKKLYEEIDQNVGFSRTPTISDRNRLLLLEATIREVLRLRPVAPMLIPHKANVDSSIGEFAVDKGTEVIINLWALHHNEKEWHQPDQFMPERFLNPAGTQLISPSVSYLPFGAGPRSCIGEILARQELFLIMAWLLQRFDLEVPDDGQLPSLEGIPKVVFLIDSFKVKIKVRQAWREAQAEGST
Description: CYP17 enzymatic assay (% inhibition at 1 nM) (Biological Example 12). The class given is biochemical. As to conditions: compound at 1 nM.

[1] abbreviates: read-out: Biological Example No. 12: CYP17 enzymatic assay % inhibition at 1 nM.
The mark [2] stands for this setting: read-out: CYP17 enzymatic assay % inhibition at 1 nM (Biological Example No. 12).

Usually inhibition stands for the percentage by which the read-out fell short of the control.

Where two headings read alike, the source gives them in different places. Bounds are passed on as bounds.

As to `C[C@]12CCC(O)(CCCO)CC1CC[C@@H]1[C@@H]2CC[C@]2(C)C(c3cccnc3)=CC[C@@H]12` (stereo partly drawn) [Compound 440, (10S,13S)-3-(3-hydroxypropyl)-10,13-dimethyl-17-(pyridin-3-yl)-2,3,4,5,6,7,8,9,10,11,12,13,14,15-tetradecahydro-1H-cyclopenta[a]phenanthren-3-ol], under setting [1], the inhibition at 0.001 µM was in the range of 10 to 50%.
On to `COc1cncc(C2=CC[C@H]3[C@@H]4CC[C@H]5C[C@@H](OC)CC[C@]5(C)[C@H]4CC[C@]23C)c1` [Compound 456, 3-methoxy-5-((3S,5S,8R,9S,10S,13S,14S)-3-methoxy-10,13-dimethyl-2,3,4,5,6,7,8,9,10,11,12,13,14,15-tetradecahydro-1H-cyclopenta[a]phenanthren-17-yl)pyridine], for which, under setting [2], the inhibition at 0.001 µM was in the range of 10 to 50%.
`C[C@]12CC[C@H](O)CC1=CCC1C2CC[C@]2(C)C(c3cncc(NS(=O)(=O)C(F)(F)F)c3)=CCC12` (stereo partly drawn) [Compound 282, 1,1,1-trifluoro-N-(5-((3S,10R,13S)-3-hydroxy-10,13-dimethyl-2,3,4,7,8,9,10,11,12,13,14,15-dodecahydro-1H-cyclopenta[a]phenanthren-17-yl)pyridin-3-yl)methanesulfonamide]: the inhibition at 0.001 µM under setting [1] is < 10%.
For `CCc1ccncc1C1=CC=C2C3CCC4CNC(=O)CC[C@]4(C)C3CC[C@]12C` (stereo partly drawn) [Compound 468, (5aR,7aS)-8-(4-ethylpyridin-3-yl)-5a,7a-dimethyl-1,2,5,5a,5b,6,7,7a,10b,11,12,12a-dodecahydrocyclopenta[5,6]naphtho[2,1-c]azepin-3(4H)-one], under setting [2], the inhibition at 0.001 µM was 10 to 50%.
As to `CC1(O)C=C2CC[C@@H]3[C@H](CC[C@]4(C)C(c5cccnc5)=CC[C@@H]34)[C@@]2(C)CC1` (stereo partly drawn) [Compound 422, (10R,13S)-3,10,13-trimethyl-17-(pyridin-3-yl)-2,3,6,7,8,9,10,11,12,13,14,15-dodecahydro-1H-cyclopenta[a]phenanthren-3-ol], the inhibition at 0.001 µM under setting [1] lay within 10 to 50%.
Regarding `Cc1ccccc1C(=O)O[C@H]1CC[C@@]2(C)C(=CCC3C4=CC=C(c5cccnc5)[C@@]4(C)CCC32)C1` (stereo partly drawn) [Compound 195, (3S,10R,13S)-10,13-dimethyl-17-(pyridin-3-yl)-2,3,4,7,8,9,10,11,12,13-decahydro-1H-cyclopenta[a]phenanthren-3-yl 2-methylbenzoate], under setting [2], the inhibition at 0.001 µM was 10 to 50%.
For the molecule `C[C@]12CCC(NC(=O)c3nccs3)CC1=CCC1C2CC[C@]2(C)C(n3ccnc3)=CCC12` (stereo partly drawn) [Compound 241, N-((10R,13S)-17-(1H-imidazol-1-yl)-10,13-dimethyl-2,3,4,7,8,9,10,11,12,13,14,15-dodecahydro-1H-cyclopenta[a]phenanthren-3-yl)thiazole-2-carboxamide], the inhibition at 0.001 µM under setting [2] lay in the range of 10 to 50%.
On the same count and under the same terms, with `C[C@]12CC[C@@H](N=[N+]=[N-])CC1CC[C@@H]1[C@@H]2CC[C@]2(C)C(c3cccnc3)=CC[C@@H]12` (stereo partly drawn) [Compound 214b, 3-((3R,10S,13S)-3-azido-10,13-dimethyl-2,3,4,5,6,7,8,9,10,11,12,13,14,15-tetradecahydro-1H-cyclopenta[a]phenanthren-17-yl)pyridine] the figure was 10 to 50%; with `CCc1ccncc1C1=CC[C@H]2[C@@H]3CC[C@H]4CNC(=O)CC[C@]4(C)[C@H]3CC[C@]12C` [Compound 470, (5aR,5bS,7aS,10aS,10bR,12aR)-8-(4-ethylpyridin-3-yl)-5a,7a-dimethyl-1,2,5,5a,5b,6,7,7a,10,10a,10b,11,12,12a-tetradecahydrocyclopenta[5,6]naphtho[2,1-c]azepin-3(4H)-one], < 10%; with `CCc1cncc(C2=CC[C@H]3[C@@H]4CC[C@H]5C[C@@H](OC)CC[C@]5(C)[C@H]4CC[C@]23C)c1` [Compound 455, 3-ethyl-5-((3S,5S,8R,9S,10S,13S,14S)-3-methoxy-10,13-dimethyl-2,3,4,5,6,7,8,9,10,11,12,13,14,15-tetradecahydro-1H-cyclopenta[a]phenanthren-17-yl)pyridine], 10 to 50%.
